Test results as given in ChEMBL document CHEMBL1201862, “PubChem BioAssay data set” (2004).
Calls of active or inactive are those of the source.

Experiments:
[1] = NIH-3T3 fibroblast cytotoxicity, dose response, cytotoxicity control, cell-based, fluorescence, Alamar Blue, secondary assay (AID 2327); type: functional;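 note: NIH-3T3 mouse fibroblasts cultured with fluconazole at 8 µg/mL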
[2] = C. albicans growth with fluconazole, confirmation, fluorescence, retest (AID 2467); type: functional, cell-based
[3] = target: T1, Serine/threonine-protein phosphatase (Candida dubliniensis (strain CD36 / CBS 7987 / NCPF 3949 / NRRLY-17841) (Yeast), UniProt B9W6M3); assay: calcineurin pathway inhibitors in yeast reporter, dose response, S. cerevisiae, CDRE-lacZ, luminescence, secondary (AID 2388); type: functional, cell-based;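 note: yeast reporter cells carrying a calcineurin-responsive lacZ construct stimulated with calcium chloride; luminescent beta-galactosidase reporter signal in whole cells rather than isolated phosphatase activity; potency for inhibition where a drop in reporter signal means calcineurin blockade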
T1 sequence (B9W6M3 whole entry): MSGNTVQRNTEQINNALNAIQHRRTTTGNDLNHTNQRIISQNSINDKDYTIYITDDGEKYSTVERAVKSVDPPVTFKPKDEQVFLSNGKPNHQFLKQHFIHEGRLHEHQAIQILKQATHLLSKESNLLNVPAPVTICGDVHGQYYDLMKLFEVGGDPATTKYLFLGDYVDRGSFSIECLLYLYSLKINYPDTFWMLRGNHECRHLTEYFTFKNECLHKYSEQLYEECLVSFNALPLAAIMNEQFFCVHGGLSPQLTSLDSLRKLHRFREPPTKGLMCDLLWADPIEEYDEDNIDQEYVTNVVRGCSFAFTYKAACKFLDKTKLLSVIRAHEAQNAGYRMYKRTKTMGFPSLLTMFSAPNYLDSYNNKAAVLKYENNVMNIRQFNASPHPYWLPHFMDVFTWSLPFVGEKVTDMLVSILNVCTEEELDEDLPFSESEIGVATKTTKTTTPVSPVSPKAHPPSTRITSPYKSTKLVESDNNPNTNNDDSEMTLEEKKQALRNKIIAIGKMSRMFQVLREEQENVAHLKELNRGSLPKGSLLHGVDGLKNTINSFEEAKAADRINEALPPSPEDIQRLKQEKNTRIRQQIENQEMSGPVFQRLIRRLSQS

[4] = target: ATP-dependent molecular chaperone HSP82 (Candida albicans (strain WO-1) (Yeast), UniProt C4YTQ8); assay: loss of DOC-induced GRE-beta-galactosidase reporter signal, dose response, Hsp90 inhibitor project, S. cerevisiae, luminescence (AID 2400); type: functional, cell-based;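 note: beta-galactosidase luminescence from glucocorticoid response element reporter as proxy for Hsp90 function; inhibitor potency where signal loss means Hsp90 inhibition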
ATP-dependent molecular chaperone HSP82, sequence (C4YTQ8 whole entry): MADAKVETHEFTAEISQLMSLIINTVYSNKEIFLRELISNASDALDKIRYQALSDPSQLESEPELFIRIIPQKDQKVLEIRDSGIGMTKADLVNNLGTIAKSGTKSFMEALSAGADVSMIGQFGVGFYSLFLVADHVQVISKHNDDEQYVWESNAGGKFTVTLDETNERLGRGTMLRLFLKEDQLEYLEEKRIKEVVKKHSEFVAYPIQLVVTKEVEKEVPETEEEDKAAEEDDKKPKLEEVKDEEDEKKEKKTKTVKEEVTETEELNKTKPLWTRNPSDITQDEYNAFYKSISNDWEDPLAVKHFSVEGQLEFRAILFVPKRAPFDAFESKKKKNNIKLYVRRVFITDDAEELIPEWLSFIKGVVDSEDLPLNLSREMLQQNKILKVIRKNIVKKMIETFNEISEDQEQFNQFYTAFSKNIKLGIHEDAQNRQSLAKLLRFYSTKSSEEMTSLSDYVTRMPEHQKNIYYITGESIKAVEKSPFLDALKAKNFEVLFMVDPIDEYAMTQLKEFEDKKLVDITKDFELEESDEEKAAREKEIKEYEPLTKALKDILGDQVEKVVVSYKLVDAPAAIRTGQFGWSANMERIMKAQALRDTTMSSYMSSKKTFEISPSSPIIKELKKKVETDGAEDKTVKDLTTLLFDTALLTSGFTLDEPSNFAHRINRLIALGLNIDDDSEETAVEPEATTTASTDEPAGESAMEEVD

[5] = target: T2, Histone-lysine N-methyltransferase NSD2 (Homo sapiens, UniProt O96028); type: biochemical
T2 sequence (O96028 whole entry): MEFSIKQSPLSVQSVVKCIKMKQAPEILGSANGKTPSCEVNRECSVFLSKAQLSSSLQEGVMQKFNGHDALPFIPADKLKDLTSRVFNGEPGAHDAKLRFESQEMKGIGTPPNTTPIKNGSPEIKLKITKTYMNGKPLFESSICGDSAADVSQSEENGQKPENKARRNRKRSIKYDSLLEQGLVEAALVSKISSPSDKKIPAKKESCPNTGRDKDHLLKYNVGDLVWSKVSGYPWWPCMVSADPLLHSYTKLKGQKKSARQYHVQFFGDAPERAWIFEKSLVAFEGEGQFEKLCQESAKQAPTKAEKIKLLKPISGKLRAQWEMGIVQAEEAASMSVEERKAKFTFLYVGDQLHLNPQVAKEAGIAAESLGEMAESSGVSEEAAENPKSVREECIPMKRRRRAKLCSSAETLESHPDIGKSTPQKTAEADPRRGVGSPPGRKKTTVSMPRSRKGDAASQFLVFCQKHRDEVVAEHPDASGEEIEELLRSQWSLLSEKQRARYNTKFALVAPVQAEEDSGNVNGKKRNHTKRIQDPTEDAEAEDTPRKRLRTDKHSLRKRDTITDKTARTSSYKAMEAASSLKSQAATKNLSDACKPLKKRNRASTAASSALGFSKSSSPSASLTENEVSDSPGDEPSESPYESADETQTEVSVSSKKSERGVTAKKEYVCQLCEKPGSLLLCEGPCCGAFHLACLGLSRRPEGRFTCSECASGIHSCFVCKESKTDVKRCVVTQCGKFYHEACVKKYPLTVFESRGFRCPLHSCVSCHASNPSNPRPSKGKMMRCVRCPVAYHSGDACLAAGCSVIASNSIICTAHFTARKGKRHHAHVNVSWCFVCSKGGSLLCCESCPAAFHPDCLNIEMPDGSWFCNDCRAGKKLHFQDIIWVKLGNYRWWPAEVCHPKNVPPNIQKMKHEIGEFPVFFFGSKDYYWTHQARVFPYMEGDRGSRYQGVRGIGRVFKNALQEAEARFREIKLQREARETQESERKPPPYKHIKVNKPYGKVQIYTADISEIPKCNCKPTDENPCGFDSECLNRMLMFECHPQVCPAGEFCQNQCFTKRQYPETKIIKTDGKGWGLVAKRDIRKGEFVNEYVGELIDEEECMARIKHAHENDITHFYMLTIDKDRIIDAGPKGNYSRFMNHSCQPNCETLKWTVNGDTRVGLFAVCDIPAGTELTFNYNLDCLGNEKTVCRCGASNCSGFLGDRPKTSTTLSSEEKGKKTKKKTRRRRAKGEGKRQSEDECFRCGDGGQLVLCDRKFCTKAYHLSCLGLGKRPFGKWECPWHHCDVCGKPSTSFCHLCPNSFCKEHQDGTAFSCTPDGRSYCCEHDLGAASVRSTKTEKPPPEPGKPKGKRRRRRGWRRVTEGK

[6] = target: T3, Microphthalmia-associated transcription factor (Homo sapiens, UniProt O75030); assay: TRPM1 promoter luciferase signal decrease, dose response, MITF inhibitor project, cell-based, SK-MEL-5, cherry-picked, set 3 (AID 493073); type: functional
T3 sequence (O75030 whole entry): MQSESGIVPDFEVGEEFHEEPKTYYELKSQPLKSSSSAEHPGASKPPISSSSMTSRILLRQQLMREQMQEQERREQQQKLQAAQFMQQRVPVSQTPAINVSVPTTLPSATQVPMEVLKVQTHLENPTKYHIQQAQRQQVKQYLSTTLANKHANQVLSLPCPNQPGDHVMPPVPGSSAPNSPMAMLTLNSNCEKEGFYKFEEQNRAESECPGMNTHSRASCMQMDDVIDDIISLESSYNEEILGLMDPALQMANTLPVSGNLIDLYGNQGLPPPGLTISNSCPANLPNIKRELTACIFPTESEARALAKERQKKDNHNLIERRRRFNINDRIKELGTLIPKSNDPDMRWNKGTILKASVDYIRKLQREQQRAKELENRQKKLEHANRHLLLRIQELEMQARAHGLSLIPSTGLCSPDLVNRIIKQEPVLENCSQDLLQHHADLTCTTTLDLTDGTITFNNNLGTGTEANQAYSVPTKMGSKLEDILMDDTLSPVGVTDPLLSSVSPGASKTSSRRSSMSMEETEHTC

A-375 = assay: A375 melanoma cell viability reduction, dose response, counter-screen for MITF modulator project, cherry-pick samples, set 2 (AID 540335); type: functional, cell-based; conditions: Homo sapiens
Vero [7] = assay: cells; type: functional, cell-based; conditions: Chlorocebus sabaeus
[8] = target: Delta-type opioid receptor (Homo sapiens, UniProt P41143); assay: Counterscreen for agonists of heterodimerization of the mu 1 (OPRM1) and delta 1 (OPRD1) opioid receptors: Luminescence-based cell-based high throughput dose response assay to identify agonists of OPRD1 homodimerization. [Related pubchem assays (depositor defined):AID504326, AID504355, AID504692, AID504904, AID504905]; type: functional
Delta-type opioid receptor, sequence (P41143 whole entry): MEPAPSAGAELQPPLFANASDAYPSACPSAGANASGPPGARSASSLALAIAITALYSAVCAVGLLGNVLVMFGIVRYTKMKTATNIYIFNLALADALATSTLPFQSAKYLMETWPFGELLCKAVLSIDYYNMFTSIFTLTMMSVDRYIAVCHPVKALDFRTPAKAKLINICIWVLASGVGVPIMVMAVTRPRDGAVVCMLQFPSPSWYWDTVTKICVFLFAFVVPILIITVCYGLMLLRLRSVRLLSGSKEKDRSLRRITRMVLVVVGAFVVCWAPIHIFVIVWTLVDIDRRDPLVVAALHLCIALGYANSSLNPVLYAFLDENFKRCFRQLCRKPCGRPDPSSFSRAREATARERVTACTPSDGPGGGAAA

Mu-type opioid receptor = Mu-type opioid receptor (Homo sapiens, UniProt P35372); assay: Counterscreen for agonists of heterodimerization of the mu 1 (OPRM1) and delta 1 (OPRD1) opioid receptors: Luminescence-based cell-based high throughput dose response assay to identify agonists of OPRM1 homodimerization.; type: functional;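 note: U2OS cells expressing OPRM1 and beta-arrestin as split beta-galactosidase partners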
Mu-type opioid receptor, sequence (P35372 whole entry): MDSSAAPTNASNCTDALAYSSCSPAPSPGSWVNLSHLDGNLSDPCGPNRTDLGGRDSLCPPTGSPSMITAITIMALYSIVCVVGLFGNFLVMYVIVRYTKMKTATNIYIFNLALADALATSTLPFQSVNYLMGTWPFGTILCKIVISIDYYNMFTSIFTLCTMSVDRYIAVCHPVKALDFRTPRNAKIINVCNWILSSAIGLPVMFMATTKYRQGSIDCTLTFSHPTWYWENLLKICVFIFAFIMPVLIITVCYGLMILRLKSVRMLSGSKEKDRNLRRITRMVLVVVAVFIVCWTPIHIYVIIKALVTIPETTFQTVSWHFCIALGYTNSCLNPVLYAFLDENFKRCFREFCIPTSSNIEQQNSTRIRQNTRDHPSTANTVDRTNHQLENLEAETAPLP

[9] = target: 5-hydroxytryptamine receptor 5A (Homo sapiens, UniProt P47898); assay: Counterscreen for agonists of OPRM1-OPRD1 heterodimerization: luminescence-based cell-based high throughput dose response assay to identify agonists of 5-hydroxytryptamine (serotonin) 5A receptor (HTR5A). [Related pubchem assays (depositor defined):AID504326, AID504355, AID504692, AID504904, AID504905]; type: functional
5-hydroxytryptamine receptor 5A, sequence (P47898 whole entry): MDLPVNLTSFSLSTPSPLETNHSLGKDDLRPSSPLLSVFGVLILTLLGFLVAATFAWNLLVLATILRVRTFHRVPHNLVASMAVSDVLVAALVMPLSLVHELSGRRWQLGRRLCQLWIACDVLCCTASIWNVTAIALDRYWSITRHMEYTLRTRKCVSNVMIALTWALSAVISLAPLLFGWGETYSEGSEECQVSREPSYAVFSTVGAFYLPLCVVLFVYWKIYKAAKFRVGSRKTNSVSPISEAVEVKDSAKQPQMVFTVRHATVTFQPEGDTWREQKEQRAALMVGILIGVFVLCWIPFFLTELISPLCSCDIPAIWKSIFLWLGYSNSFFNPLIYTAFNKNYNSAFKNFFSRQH

Vero [10] = assay: cells; type: functional; conditions: Chlorocebus sabaeus
[11] = HepG2 cell cytotoxicity, dose response, cytotoxicity control, ATP luminescence, cherry-pick, activator set 2 (AID 1053143); type: functional, cell-based
[12] = inhibitors of firefly luciferase expression or activity, dose response, H4 neuroglioma cells, luminescence (AID 1990); type: functional, cell-based
[13] = Luminescence Cell-Based Dose Response HTS to Identify Inhibitors of 5'UTR Stem-Loop Driven Prion Protein mRNA Translation in H4 Neuroglioblastoma Cells. [Related pubchem assays: 1827 (Project Summary), 1813 (Primary HTS)]; type: functional
Beta-galactosidase = Beta-galactosidase (Escherichia coli, UniProt Q8VNN2); assay: PubChem AID 485352; type: functional
Beta-galactosidase, sequence (Q8VNN2 whole entry): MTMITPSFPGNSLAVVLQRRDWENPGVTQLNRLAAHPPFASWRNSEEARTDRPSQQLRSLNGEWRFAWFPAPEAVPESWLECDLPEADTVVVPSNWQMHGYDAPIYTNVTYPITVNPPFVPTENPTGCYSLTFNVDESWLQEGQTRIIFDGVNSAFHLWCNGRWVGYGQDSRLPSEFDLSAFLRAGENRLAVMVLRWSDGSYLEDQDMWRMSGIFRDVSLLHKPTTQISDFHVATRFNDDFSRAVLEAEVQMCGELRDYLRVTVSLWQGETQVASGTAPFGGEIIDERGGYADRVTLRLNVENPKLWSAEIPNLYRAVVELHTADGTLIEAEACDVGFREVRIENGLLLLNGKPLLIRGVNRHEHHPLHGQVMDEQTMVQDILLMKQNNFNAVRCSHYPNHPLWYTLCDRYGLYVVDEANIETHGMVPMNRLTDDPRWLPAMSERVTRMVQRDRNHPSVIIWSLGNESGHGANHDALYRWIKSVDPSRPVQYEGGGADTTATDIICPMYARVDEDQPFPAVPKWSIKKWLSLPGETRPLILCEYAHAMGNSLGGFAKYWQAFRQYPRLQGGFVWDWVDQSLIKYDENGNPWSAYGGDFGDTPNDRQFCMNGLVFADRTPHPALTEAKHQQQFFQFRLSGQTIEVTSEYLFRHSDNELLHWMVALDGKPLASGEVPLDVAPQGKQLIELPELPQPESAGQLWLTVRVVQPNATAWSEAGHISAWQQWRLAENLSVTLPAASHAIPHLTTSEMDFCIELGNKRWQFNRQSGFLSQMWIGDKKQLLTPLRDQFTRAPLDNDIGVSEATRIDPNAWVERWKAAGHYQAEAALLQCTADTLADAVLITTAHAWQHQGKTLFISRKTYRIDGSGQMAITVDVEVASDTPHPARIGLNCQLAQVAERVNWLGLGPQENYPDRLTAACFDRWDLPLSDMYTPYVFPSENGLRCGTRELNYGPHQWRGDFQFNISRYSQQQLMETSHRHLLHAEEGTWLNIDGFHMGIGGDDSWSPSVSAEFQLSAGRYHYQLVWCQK

[14] = inhibitors of SNCA 5'UTR-driven reporter translation, confirmation, H4 neuroglioma cells, luminescence (AID 1988); type: functional, cell-based
[15] = target: Type-1 angiotensin II receptor (Homo sapiens, UniProt P30556); assay: AT1 receptor antagonists, dose response, selectivity assay for APJ receptor antagonist project, cell-based, uHTS hits (AID 463214); type: functional;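 note: antagonist potency against angiotensin II stimulated AT1 response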
Type-1 angiotensin II receptor, sequence (P30556 whole entry): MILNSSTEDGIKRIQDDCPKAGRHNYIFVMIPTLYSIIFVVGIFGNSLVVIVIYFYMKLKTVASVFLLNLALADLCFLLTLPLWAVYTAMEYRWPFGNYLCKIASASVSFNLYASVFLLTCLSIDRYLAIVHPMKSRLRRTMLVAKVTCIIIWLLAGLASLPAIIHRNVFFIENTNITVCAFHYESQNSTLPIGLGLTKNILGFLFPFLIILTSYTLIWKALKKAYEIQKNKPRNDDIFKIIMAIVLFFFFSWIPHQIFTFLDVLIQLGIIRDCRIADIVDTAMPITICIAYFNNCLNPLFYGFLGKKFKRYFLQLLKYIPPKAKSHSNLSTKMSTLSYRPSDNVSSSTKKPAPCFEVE

[16] = target: T4, Short transient receptor potential channel 4 (Mus musculus, UniProt Q9QUQ5); assay: mouse TRPC4 channel activators, dose response, cell-based, HEK293 TRPC4/mu-opioid, Fluo-4 calcium (AID 434937); type: functional
T4 sequence (Q9QUQ5 whole entry): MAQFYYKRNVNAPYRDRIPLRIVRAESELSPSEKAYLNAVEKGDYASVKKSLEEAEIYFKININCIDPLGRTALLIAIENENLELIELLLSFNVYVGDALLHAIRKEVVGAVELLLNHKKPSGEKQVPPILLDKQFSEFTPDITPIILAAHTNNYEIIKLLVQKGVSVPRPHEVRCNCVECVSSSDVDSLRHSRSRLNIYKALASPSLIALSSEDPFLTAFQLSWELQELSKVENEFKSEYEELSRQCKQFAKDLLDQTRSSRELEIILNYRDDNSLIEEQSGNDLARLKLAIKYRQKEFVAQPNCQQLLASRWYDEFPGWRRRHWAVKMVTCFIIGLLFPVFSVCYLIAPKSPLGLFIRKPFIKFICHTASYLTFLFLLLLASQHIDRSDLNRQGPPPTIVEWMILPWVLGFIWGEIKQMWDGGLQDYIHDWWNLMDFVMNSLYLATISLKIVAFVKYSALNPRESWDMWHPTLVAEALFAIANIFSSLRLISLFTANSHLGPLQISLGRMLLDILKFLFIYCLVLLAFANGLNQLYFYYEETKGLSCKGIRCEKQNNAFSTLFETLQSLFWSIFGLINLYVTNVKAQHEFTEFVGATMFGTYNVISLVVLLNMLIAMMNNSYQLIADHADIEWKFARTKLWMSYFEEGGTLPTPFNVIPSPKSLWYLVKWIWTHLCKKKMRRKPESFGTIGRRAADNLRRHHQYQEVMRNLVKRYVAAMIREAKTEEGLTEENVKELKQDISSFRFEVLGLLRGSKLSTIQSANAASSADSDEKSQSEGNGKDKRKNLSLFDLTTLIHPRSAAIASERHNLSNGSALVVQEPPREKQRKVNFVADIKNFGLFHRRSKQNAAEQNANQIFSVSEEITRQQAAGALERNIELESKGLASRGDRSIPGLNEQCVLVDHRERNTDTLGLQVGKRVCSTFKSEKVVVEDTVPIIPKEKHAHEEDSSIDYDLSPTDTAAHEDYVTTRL

[17] = target: Heat shock protein HSP 90-alpha (Homo sapiens, UniProt P07900); type: functional, organism-based

SMILES: COc1ccc(OC)c(/C=C2\SC(=S)N(NS(=O)(=O)c3ccc(C)cc3)C2=O)c1
- EC50 [1]: > 150 µM (inactive)
- EC50 [2]: 832 nM (active)
- EC50 [3]: > 180 µM (inactive)
- EC50 [4]: 5.2 µM (active)
- AC50 [5]: 15.9 µM (active)

SMILES: CC(C)Oc1ccc(C(CCNCc2ccc(O)cc2)c2ccccc2)cc1 (stereo not given)
- AC50 [6]: 12.8 µM (active)
- AC50 (A-375): 18.8 µM (active)

SMILES: CN1CCN(c2ccc(NC(=O)c3ccc(-c4ccccc4F)o3)cc2)CC1
- IC50 (Vero [7]): 24.8 µM (active)
- EC50 [8]: 32.6 µM (inactive)
- EC50 (Mu-type opioid receptor): 26.3 µM (inactive)
- EC50 [9]: > 92.5 µM (inactive)
- CC50 (Vero [10]): > 25 µM (active)
- AC50 [11]: 26 µM (active)

SMILES: COc1ccccc1C(=O)NNC(=S)NC(=O)c1cccs1
- EC50 [12]: > 120 µM (not active)
- EC50 [13]: 13.2 µM (active)
- EC50 (Beta-galactosidase): > 40 µM (inactive)
- EC50 [14]: > 120 µM (not active)
- IC50 [15]: 20.4 µM (not active)
- EC50 [16]: 6.68 µM (active)
- AC50 [17]: 3.85 µM (active)
